Series [1] can be described thus: antimicrobial / antibiotic activity (in words). It counts as cell-based.
A further series relates to P-388 leukemia. Description: transplantable mouse tumor P-388 leukemia. The class given is in vivo, mouse (CDF1 female mice). To be noted: filtrate of acetone trituration. The protocol: Anandimycin was also tested against the transplantable mouse tumor P-388 leukemia. The methodology used generally followed the protocols of the National Cancer Institute (Cancer Chemotherapy Rep., Part 3, 3, 1-103 (1972). The essential experimental details are given at the bottom of the following table. Two different dose regimens are tested: single dose on day 1 and three doses given on days 1, 5 and 9. The optimal dose was 64 mg/kg. single dose.
Tumor inoculum: 10^6 ascites cells implanted
Host: CDF1 .female. mice
Evaluation: MST = median survival
Effect: % T/C = (MST treated/MST control) ×
Criteria: % T/C ≥ 125 considered significant antitumor
Tox: […] 4/6 mice alive on day 5
AWC = average weight gain (treatedcontrol) in grams (on day 4)

The test system of a further series is E. coli. The experiment in a line: lysogenic bacterial induction (ILB) assay. It counts as cell-based. The text has this: Analytical high pressure liquid chromatography, Bacillus subtilis zone of inhibition, lysogenic bacterial induction and P388 mouse tumor assays are used throughout the above-described separation processes to monitor relative levels of anandimycin and co-produced substances.

A short description of series [2]: solubility in organic solvents (trituration, chromatography). It counts as physicochemical. Conditions: solvents for (preparative) chromatography. The text has this: The solids obtained from extraction of the whole broth are next washed with diethyl ether to remove any lard oils and antifoams used in the fermentation. […] To remedy this problem a simple organic solvent trituration scheme was developed which effects a gross separation of the yellow pigments and another class of antitumor agents produced by strain C-22,437 (rachelmycin) from anandimycin on the basis of differential solubility. […] The first step involves trituration of the extraction solids with acetone. The resulting filtrate contains another antitumor substance which is active in the lysogenic bacteria induction assay and the P388 mouse tumor system (rachelmycin). The insoluble solid from the acetone trituration contains the yellow pigments along with a complex of anandimycin and another similar compound. The second phase of the process involves trituration with a ternary organic solvent system 40:30:30(^v/v) chloroform:methanol:tetrahydrofuran. The soluble fraction contains the yellow pigments. […] Substantially pure anandimycin is separated from the enriched mixture using high pressure liquid chromatography on silica gel as described in more detail below.
The analytical solvent system routinely used is hexane:ethyl acetate:isopropanol (30:70:3^v /v) along with 0.1 to 0.4 part water depending on the relative activity state of the silica gel surface in the column being used. If tailing effects are observed, then typically one increases the water content of the solvent system within the 0.1-0.4 part range to improve peak symmetry, thereby permitting a more quantitative analysis.
The preparative solvent system is ethyl acetate:isopropanol:water (87:13:0.5^v /v). […] A shave-recycle method involves increasing the effective silica gel column length through the employment of continuous multiple pass chromatography of the anandimycin-component II band. […] Initial chromatography gave anandimycin enriched to 70-85% purity. Accumulated solids are rechromatographed to yield material of >90% purity. […]

In a further series the test system is Str. pyogenes 9604. Description: in vitro MIC, standard tube dilution procedure. It counts as cell-based. To be noted: Streptococcus pyogenes; Str. pyogenes 9604; read-out: Minimum Inhibitory Concentration. The protocol:
(§1) The in vitro minimum inhibitory concentrations (MIC) of anandimycin were determined against a variety of microorganisms using the standard tube dilution procedure.

In another series the test system is Ent. cloacae 9659. The experiment in a line: in vitro MIC, standard tube dilution procedure. The class given is cell-based. Conditions: Enterobacter cloacae; Ent. cloacae 9659; read-out: Minimum Inhibitory Concentration. The protocol:
as §1

For a further series, the system named is Str. faecalis 20,588. The experiment in a line: in vitro MIC, standard tube dilution procedure. It counts as cell-based. Conditions: Enterococcus faecalis; Str. faecalis 20,588; read-out: Minimum Inhibitory Concentration. The protocol: as §1
In a further series the test system is E. coli 15119. Description: in vitro MIC, standard tube dilution procedure. The class given is cell-based. Conditions: Escherichia coli; E. coli 15119; read-out: Minimum Inhibitory Concentration. The protocol: as §1
The subject of another series is E. coli 20341-1. The experiment in a line: in vitro MIC, standard tube dilution procedure. It counts as cell-based. To be noted: Escherichia coli, 203411; E. coli 20341-1; read-out: Minimum Inhibitory Concentration. The protocol: as §1
The subject of series [3] is Staph. aureus (penicillin-resistant) 9606. The experiment in a line: in vitro MIC, standard tube dilution procedure. It counts as cell-based. To be noted: Staphylococcus aureus, read-out: Minimum Inhibitory Concentration. The protocol: as §1
Another series concerns K. pneumoniae 15130. The experiment in a line: in vitro MIC, standard tube dilution procedure. The class given is cell-based. To be noted: Klebsiella pneumoniae; K. pneumoniae 15130; read-out: Minimum Inhibitory Concentration. The protocol: as §1
The test system of the next series is Pr. vulgaris 21559. Description: in vitro MIC, standard tube dilution procedure. The class given is cell-based. To be noted: Proteus vulgaris; Pr. vulgaris 21559; read-out: Minimum Inhibitory Concentration. The protocol: as §1
A further series deals with Pr. mirabilis 9900. The experiment in a line: in vitro MIC, standard tube dilution procedure. To be noted: Proteus mirabilis; Pr. mirabilis 9900; read-out: Minimum Inhibitory Concentration. It counts as cell-based. The protocol: as §1
For the next series, the system named is Staph. aureus 9587. The experiment in a line: in vitro MIC, standard tube dilution procedure. The class given is cell-based. Conditions: Staphylococcus aureus; Staph. aureus 9587; read-out: Minimum Inhibitory Concentration. The protocol: as §1
For the next series, the system named is Str. pneumoniae 9585. Description: in vitro MIC, standard tube dilution procedure. The class given is cell-based. To be noted: Streptococcus pneumoniae; Str. pneumoniae 9585; read-out: Minimum Inhibitory Concentration. The protocol:
as §1

Another series concerns Ps. aeruginosa 9843A. The experiment in a line: in vitro MIC, standard tube dilution procedure. The class given is cell-based. Conditions: Pseudomonas aeruginosa; Ps. aeruginosa 9843A; read-out: Minimum Inhibitory Concentration. The protocol:
as §1

A further series relates to Ser. marcescens 20019. Description: in vitro MIC, standard tube dilution procedure. It counts as cell-based. To be noted: Serratia marcescens; Ser. marcescens 20019; read-out: Minimum Inhibitory Concentration. The protocol: as §1
Series [4] in a line: biological activity (in words).

The structures appear in SMILES notation. Values after ≈ are worked out from the molar mass of the structure shown. “Also recorded” adds a separate entry of the source.

Consider `COc1c(O)c2c(c3cc(C(=O)N4CCc5c4c(O)c(OC)c4[nH]c(C(=O)N6CC7CC78C6=CC(=O)c6[nH]cc(C)c68)cc54)[nH]c13)CCN2C(N)=O` (stereo not drawn) [rachelmycin, reference compound], for which the “antimicrobial / antibiotic activity” value in series [1] is “possesses both antibiotic and lysogenic bacterial induction activity”. For the same compound, the “activity in the P388 mouse tumor system” value with P-388 leukemia was “active”. In addition, the “lysogenic bacterial induction activity” value in the series on E. coli is “active; also recorded: possesses both antibiotic and lysogenic bacterial induction activity”.

In the case of `COc1cc2c(oc(=O)c3cc(O)cc(OC)c32)c2c(C3OC(C(C)O)C(O)C3O)ccc(O)c12` (stereo not drawn) [Component II], the “solubility in chromatography solvents” value in series [2] is listed as “poor solubility”. Moreover, the MIC was 0.5 µg/mL (≈ 1.03 µM) in the series on Str. pyogenes 9604; above 63 µg/mL in the series on Ent. cloacae 9659; 0.13 µg/mL (≈ 0.268 µM) with Str. faecalis 20,588; above 63 µg/mL in the series on E. coli 15119; above 63 µg/mL in the series with E. coli 20341-1; 0.5 µg/mL (≈ 1.03 µM) in [3]. The MIC in the series with K. pneumoniae 15130 is above 63 µg/mL; in the series with Pr. vulgaris 21559, above 63 µg/mL; in the series with Pr. mirabilis 9900 it was above 63 µg/mL; in the series with Staph. aureus 9587, 0.13 µg/mL (≈ 0.268 µM); in the series on Str. pneumoniae 9585, 0.25 µg/mL (≈ 0.516 µM); with Ps. aeruginosa 9843A it was above 63 µg/mL. Also, in the series on Ser. marcescens 20019, the MIC is above 63 µg/mL. Further, the biological activity entry in series [4] was “biologically inactive”.

Source of the values: patent publication US4360595A, “Fermentation process for producing anandimycin” (Bristol-Myers Company, priority 1981, dated 1982).
